Assay results as given in publication PMC6964506 (ACS Omega, 2019).

Legend:
[1] = target: K-RasG12V/PDE6D interaction (Homo sapiens, UniProt O43924); test: PDE6D/K-Ras interaction by FLIM-FRET in HEK cells; type: cell-based; conditions: 5 μM, 24 h
[2] = system: MDA-MB-231 cells; test: Mammosphere formation assay; type: cell-based; conditions: MDA-MB-231, 6 days suspension then 72 h with 5 μM
[3] = system: Hs 578T cells; test: Mammosphere formation assay; type: cell-based; conditions: 6 days suspension then 72 h with 5 μM
[4] = system: A375 cells; test: Tumorosphere viability, drug sensitivity score; type: cell-based; conditions: B-RafV600E mutant A375 spheroids, 72 h, 0 to 20 μM
[5] = target: PDE6D/avi-K-RasFMe (Homo sapiens, UniProt O43924); test: SPR inhibition of PDE6D binding to captured avi-K-RasFMe
[6] = system: NCI-H358 cells; test: Tumorosphere viability, drug sensitivity score; type: cell-based; conditions: NCI-H358 tumorospheres, 72 h, 0 to 20 μM
[7] = system: H-RasG12V; test: H-Ras nanoclustering-FRET; type: cell-based; conditions: HEK cells, 5 μM (FTI-277 0.2 μM), 24 h
[8] = system: K-RasG12V; test: K-Ras nanoclustering-FRET; type: cell-based; conditions: HEK cells, 24 h; for dose-dependent effect on K-RasG12V nanoclustering-FRET: various concentrations, compared with 24 and 25

Sequence of K-RasG12V/PDE6D interaction (O43924 whole entry): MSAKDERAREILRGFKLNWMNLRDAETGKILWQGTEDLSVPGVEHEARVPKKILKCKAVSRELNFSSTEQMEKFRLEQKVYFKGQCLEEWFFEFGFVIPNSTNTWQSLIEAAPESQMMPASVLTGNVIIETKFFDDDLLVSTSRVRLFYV
Sequence of PDE6D/avi-K-RasFMe (O43924 whole entry): as above

Question: With `COC(=O)c1ccc(C(=O)NCCCCOP(=O)(OC)OCC(C)(C)C(=O)CSC(C)=O)cc1N` (stereo not drawn) [compound 25] as the compound, how does the “effect on K-RasG12V/PDE6D FLIM-FRET” value [1] read?
Answer: performed better than 24

Question: And the “effect on mammosphere formation (SFE)” value [2]?
Answer: inactive

Question: What about the “effect on mammosphere formation (SFE)” value [3] of the same compound?
Answer: inactive

Question: How did the “activity on spheroid viability (DSS)” value [4] turn out when `C=CC(=O)N1CCN(c2ncnc3c(F)c(-c4c(O)cccc4F)c(Cl)cc23)CC1` [ARS-1620] was run?
Answer: inactive

Question: `O=C(NCCCCCCO)c1cc2ccccc2oc1=O` [compound 14] was tested. Which IC50 [5] did it give?
Answer: 18.9 ± 0.2 µM

Question: And the Kd [5]?
Answer: 14.1 ± 0.2 µM

Question: What about the “effect on K-RasG12V/PDE6D FLIM-FRET” value [1] of the same compound?
Answer: did not block the interaction

Question: `CCOC(=O)C(C)(COP(=O)(OC)OCC1CCC(CNC(=O)c2cc3ccccc3oc2=O)CC1)C(=O)CSC(C)=O` (stereo not drawn) [compound 17] was tested. Which IC50 [5] did it give?
Answer: 6.7 ± 0.1 µM

Question: What about the Kd [5] of the same compound?
Answer: 4.97 ± 0.07 µM

Question: What about the “effect on K-RasG12V/PDE6D FLIM-FRET” value [1] of the same compound?
Answer: lacked in cellulo activity

Question: And the “effect on mammosphere formation (SFE)” value [2]?
Answer: no significant effect

Question: What about the “effect on mammosphere formation (SFE)” value [3] of the same compound?
Answer: no significant effect

Question: How did the “activity on spheroid viability (DSS)” value [6] turn out when `c1ccc(Cn2c(-c3ccc(OC[C@H](C4CCNCC4)n4c(-c5ccccc5)nc5ccccc54)cc3)nc3ccccc32)cc1` [Deltarasin, reference compound] was run?
Answer: equally high activity in both cell lines

Question: And the “activity on spheroid viability (DSS)” value [4]?
Answer: equally high activity in both cell lines

Question: What about the “effect on H-RasG12V nanoclustering-FRET” value [7] of the same compound?
Answer: reduced FRET of both Ras isoforms about equally

Question: What about the “effect on K-RasG12V nanoclustering-FRET” value ([8]; 5 μM (FTI-277 0.2 μM)) of the same compound?
Answer: reduced FRET of both Ras isoforms about equally

Question: What about the IC50 ([8]; read-out: IC50 K-Ras nanoclustering-FRET (mean ± SEM), n = 3) of the same compound?
Answer: 0.7 ± 0.4 µM

Question: Which “effect on K-RasG12V/PDE6D FLIM-FRET” value [1] does the source give for `COC(=O)c1ccc(C(=O)NCCCCCCOP(=O)(OC)OCC(C)(C)C(=O)CSC(C)=O)cc1N` (stereo not drawn) [compound 23] here?
Answer: performed as well as 15 and somewhat better than 22

Question: What about the “activity on spheroid viability (DSS)” value [4] of the same compound?
Answer: inactive

Question: And the “effect on H-RasG12V nanoclustering-FRET” value [7]?
Answer: No effect

Question: And the “dose-dependent effect on K-RasG12V nanoclustering-FRET” value [8]?
Answer: significant dose-dependent reduction

Question: And the “effect on mammosphere formation (SFE)” value [3]?
Answer: but not H-RasG12V-mutant Hs 578T-mammosphere formation

Question: How did the IC50 [5] turn out when `CCOC(=O)C(C)(COP(=O)(OC)OCCCCCCNC(=O)c1ccc(C(=O)OC)c(N)c1)C(=O)CSC(C)=O` (stereo not drawn) [compound 22] was run?
Answer: 10.27 ± 0.03 µM

Question: And the Kd [5]?
Answer: 7.62 ± 0.02 µM

Question: What about the “fold lower affinity than analogue 23” value ([5]; SPR) of the same compound?
Answer: 2.6 fold

Question: What about the “effect on H-RasG12V nanoclustering-FRET” value [7] of the same compound?
Answer: No effect

Question: What about the “dose-dependent effect on K-RasG12V nanoclustering-FRET” value [8] of the same compound?
Answer: significant dose-dependent reduction
